Results published in patent US20240360179A1, “STAPLED PEPTIDES AND METHODS THEREOF” (FOG PHARMACEUTICALS, INC., priority 2021, published 2024).

Legend:
[1] = target: T1, TCF/LEF luciferase reporter in DLD1 cells (Homo sapiens, UniProt P35222); assay: TCF reporter assay in DLD1 cells (4% or 20% FBS); format: cell-based; settings: DLD1 reporter cells; read-out: TCF reporter IC50
T1 sequence (P35222 2-781): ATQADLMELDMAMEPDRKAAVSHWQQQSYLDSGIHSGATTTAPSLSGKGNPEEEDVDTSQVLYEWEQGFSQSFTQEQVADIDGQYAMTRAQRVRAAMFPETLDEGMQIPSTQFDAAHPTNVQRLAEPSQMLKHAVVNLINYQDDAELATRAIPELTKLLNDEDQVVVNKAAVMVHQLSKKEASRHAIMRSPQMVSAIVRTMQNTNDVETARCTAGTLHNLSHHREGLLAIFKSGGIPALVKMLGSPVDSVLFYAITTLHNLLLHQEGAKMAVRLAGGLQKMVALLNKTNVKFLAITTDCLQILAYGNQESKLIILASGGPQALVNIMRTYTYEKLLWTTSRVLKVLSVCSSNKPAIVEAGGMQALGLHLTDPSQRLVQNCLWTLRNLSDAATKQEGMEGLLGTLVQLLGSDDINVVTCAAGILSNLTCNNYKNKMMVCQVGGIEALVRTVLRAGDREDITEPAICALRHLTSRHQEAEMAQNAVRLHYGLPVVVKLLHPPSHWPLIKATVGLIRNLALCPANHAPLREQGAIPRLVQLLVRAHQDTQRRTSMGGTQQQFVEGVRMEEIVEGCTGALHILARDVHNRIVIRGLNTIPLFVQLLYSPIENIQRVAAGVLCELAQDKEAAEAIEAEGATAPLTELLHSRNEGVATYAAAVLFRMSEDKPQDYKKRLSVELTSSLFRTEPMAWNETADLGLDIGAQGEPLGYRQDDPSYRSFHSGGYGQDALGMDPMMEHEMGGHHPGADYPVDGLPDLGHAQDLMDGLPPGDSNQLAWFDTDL

[2] = Mouse plasma pharmacokinetics (IV, IP); format: in vivo; settings: single intraperitoneal (IP) dose at 100 mg/kg
Procedure: Concentrations of agents in biological samples were measured by LC-MS/MS (Triple Quad 6500+). […] 8 uL of plasma or tissue lysate was used for LC method with mobile phase A (1% formic acid (FA, LS118-4, Fisher Scientific) in H2O) and mobile phase B (0.1% FA in ACN), 0.6 ml/min flow rate in Waters ACQUITY UPLC BEH C18 2.1*50 mm, 1.7 μm column. […] MS was conducted by electrospray ionization and multi reaction monitor scans. PK parameters such as plasma maximum concentration (Cmax), and AUC were analyzed by noncompartmental model 200 of Phoenix WinNonlin 8.3, using the linear/log trapezoidal method.
In some embodiments, concentrations of compounds, e.g., stapled peptides, in biological samples were measured by LC-MS/MS (Triple Quad 6500+). […] 8 uL of plasma or tissue lysate was used for LC method with mobile phase A (1% formic acid (FA, LS118-4, Fisher Scientific) in H2O) mobile phase B (0.1% FA in ACN), 0.6 ml/min flowrate in Waters ACQUITY UPLC BEH C18 2.1*50 mm, 1.7 um column. […] In some embodiments, MS was conducted by electrospray ionization and multi reaction monitor scans. In some embodiments, PK parameters such as plasma maximum concentration (Cmax), and AUC were analyzed by noncompartmental model 200 of Phoenix WinNonlin 8.3, using the linear/log trapezoidal method.

[3] = system: Wnt/beta-catenin pathway in COLO320DM tumors; assay: Tumor RNA-sequencing and GSEA in COLO320DM tumors; format: in vivo, mice; settings: 48-hr post-dose, i.p. 30 mg/kg
Text: It is noted that both negatively and positively enriched gene sets were observed. Among other things, the present disclosure provides technologies for assessing efficacy of a method, e.g., a treatment, comprising assessing expression of one or more negatively and/or positively enriched genes. In some embodiments, if expression profiles of one or more genes are negatively and/or positively enriched as identified herein, a method may be considered to have efficacy, and/or administration (e.g., of provided technologies such as stapled peptides, compositions, etc.) to a subject can continue. […]
RNAseq Data Analysis. In some embodiments, sequence reads were trimmed to remove possible adapter sequences and nucleotides with poor quality using Trimmomatic v.0.39. The trimmed reads were mapped to the Homo sapiens GRCh38 reference genome available on ENSEMBL using the STAR aligner v.2.7.7a. For grafted tumor samples, host reads were removed with XenofilteR. Unique gene hit counts were calculated by using featureCounts from the R Subread package v.2.4.2. Read filtering, normalization, and differentially expression analysis was performed with the edgeR package v.4.0.2 in R. Genes with an adjusted p-value <0.01 and absolute log 2 fold change >1 were called as differentially expressed genes for each comparison. […]
RNAseq Preparation. […] On average over 60 million 2×150 base pair reads were produced per sample. […]

**Q.** Which IC50 [1] does the source give for “Ac-PL3-Glu-Npg-B5-Glu-3COOHF-Aib-Ala-Phe-Lys*3-PyrS2-3Thi-BztA-GlnR*3-Ala-NH2 [I-470]” here?
**A.** > 20 µM

**Q.** What about the “plasma AUC” value [2] of the same substance?
**A.** comparable

**Q.** What about the concentration in tumors [3] of the same substance?
**A.** 5181 ng/gram
